PubChem BioAssay AID330 (DTP/NCI, 2004)
Where “and” joins values, the source holds several entries; their conditions need not be identical. Equal entries are not always repeated. Inconclusive results and toxic doses are left out. The calls were made as follows: active = survival T/C of 150% or more; inactive = T/C below 125% in these data.

Test system: P388 leukemia ip, CD2F1 mice, survival T/C
Assay: NCI In Vivo Anticancer Drug Screen. Data for tumor model P388 Leukemia (intraperitoneal) in CD2F1 (CDF1) mice
Settings: endpoint: median survival time, higher = longer survival
Summary of the method: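 Mice carrying the transplanted tumor received test compound or vehicle. Survival was recorded in each group, and the value is the treated-group measurement divided by that of the vehicle-treated control group.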

[1] = dose: 25.0 mg/kg/injection, schedule: Q01DX005 (ip), vehicle: Klucel (hydroxypropylcellulose) (HPC)
[2] = dose: 50.0 mg/kg/injection, schedule: Q01DX005 (ip), vehicle: Klucel (hydroxypropylcellulose) (HPC)
[3] = dose: 100.0 mg/kg/injection, schedule: Q01DX005 (ip), vehicle: Klucel (hydroxypropylcellulose) (HPC)
[4] = dose: 200.0 mg/kg/injection, schedule: Q01DX005 (ip), vehicle: Klucel (hydroxypropylcellulose) (HPC)
[5] = dose: 60.0 mg/kg/injection, schedule: Q01DX005 (ip), vehicle: saline with Tween-80
[6] = dose: 120.0 mg/kg/injection, schedule: Q01DX005 (ip), vehicle: saline with Tween-80
[7] = dose: 240.0 mg/kg/injection, schedule: Q01DX005 (ip), vehicle: saline with Tween-80
[8] = dose: 50.0 mg/kg/injection, schedule: Q01DX005 (ip), vehicle: saline with Tween-80
[9] = dose: 100.0 mg/kg/injection, schedule: Q01DX005 (ip), vehicle: saline with Tween-80
[10] = dose: 200.0 mg/kg/injection, schedule: Q01DX005 (ip), vehicle: saline with Tween-80
[11] = dose: 100.0 mg/kg/injection, schedule: Q01DX009 (ip), vehicle: saline with Tween-80
[12] = dose: 200.0 mg/kg/injection, schedule: Q01DX009 (ip), vehicle: saline with Tween-80

Measured: T/C

CCOC(=O)C(C(=O)OCC)=C1c2c(ccc(OC)c2OC)C=C2c3cc4c(cc3CCN21)OCO4
inactive: dose: 0.63 mg/kg/injection, schedule: Q01DX009 (ip), vehicle: water 97 % of control | dose: 1.25 mg/kg/injection, schedule: Q01DX009 (ip), vehicle: water 100 % of control | dose: 2.5 mg/kg/injection, schedule: Q01DX009 (ip), vehicle: water 106 % of control | dose: 5.0 mg/kg/injection, schedule: Q01DX009 (ip), vehicle: water 117 % of control | dose: 10.0 mg/kg/injection, schedule: Q01DX009 (ip), vehicle: water 124 % of control

CCCOc1ccc(C(C)c2cc3c(cc2OC)OCO3)cc1 (stereo unspecified)
inactive: [1] 100 % of control | [2] 103 % of control | [3] 103 % of control | [4] 98 % of control

COc1ccc(N(N=O)c2c(C)cc(C)cc2C)c(C(=O)O)c1
inactive: [2] 96 % of control | [3] 96 % of control | [4] 98 % of control

NC(N)=NCC[C@H](N)C(=O)O
inactive: dose: 50.0 mg/kg/injection, schedule: Q01DX005 (ip), vehicle: saline 104 % of control | dose: 100.0 mg/kg/injection, schedule: Q01DX005 (ip), vehicle: saline 104 % of control | dose: 200.0 mg/kg/injection, schedule: Q01DX005 (ip), vehicle: saline 97 % of control

C=C1C(=O)OC2C1CCC(=C)C1CC(O)C(=C)C12 (stereo unspecified)
inactive: dose: 9.37 mg/kg/injection, schedule: Q01DX009 (ip), vehicle: suspension in saline 103 % of control | dose: 18.75 mg/kg/injection, schedule: Q01DX009 (ip), vehicle: suspension in saline 119 % of control and 123 % of control | dose: 37.5 mg/kg/injection, schedule: Q01DX009 (ip), vehicle: suspension in saline 121 % of control

CC(=O)OCc1c(C)[nH]c2ccc(N(C)C)cc2c1=O
inactive: [5] 88 % of control | [6] 103 % of control | [7] 111 % of control

Cn1ccn(CCCCCCn2ccn(C)c2=S)c1=S
inactive: dose: 3.12 mg/kg/injection, schedule: Q01DX009 (ip), vehicle: saline 103 % of control | dose: 6.25 mg/kg/injection, schedule: Q01DX009 (ip), vehicle: saline 96 % of control | dose: 12.5 mg/kg/injection, schedule: Q01DX009 (ip), vehicle: suspension in saline 92 % of control

Cc1cnc(Sc2ncccn2)c([N+](=O)[O-])c1
inactive: dose: 50.0 mg/kg/injection, schedule: Q01DX009 (ip), vehicle: saline 101 % of control | dose: 100.0 mg/kg/injection, schedule: Q01DX009 (ip), vehicle: saline 104 % of control | dose: 200.0 mg/kg/injection, schedule: Q01DX009 (ip), vehicle: saline 104 % of control

CC1CC[N-]C(N)C1.CC1CC[N-]C(N)C1.[Cl][Pt+2][Cl] (stereo unspecified)
inactive: dose: 100.0 mg/kg/injection, schedule: Q01DX001 (sc), vehicle: olive oil, sesame oil, peanut oil 106 % of control | dose: 200.0 mg/kg/injection, schedule: Q01DX001 (sc), vehicle: olive oil, sesame oil, peanut oil 106 % of control | dose: 400.0 mg/kg/injection, schedule: Q01DX001 (sc), vehicle: olive oil, sesame oil, peanut oil 107 % of control

O=C1c2ccccc2C(=O)c2c(O)c(NCCCNCCO)cc(O)c21
inactive: dose: 2.5 mg/kg/injection, schedule: Q01DX009 (ip), vehicle: acid diluted with saline 103 % of control | dose: 5.0 mg/kg/injection, schedule: Q01DX009 (ip), vehicle: acid diluted with saline 108 % of control | dose: 10.0 mg/kg/injection, schedule: Q01DX009 (ip), vehicle: acid diluted with saline 103 % of control | dose: 20.0 mg/kg/injection, schedule: Q01DX009 (ip), vehicle: acid diluted with saline 112 % of control | dose: 40.0 mg/kg/injection, schedule: Q01DX009 (ip), vehicle: acid diluted with saline 111 % of control | dose: 80.0 mg/kg/injection, schedule: Q01DX009 (ip), vehicle: acid diluted with saline 100 % of control

CCC(C)C(=O)OC1C(=O)OC2CC3C(C)=CC(=O)C(O)C3(C)C3C4(O)OCC23C1C(C)C4O (stereo unspecified)
inactive: dose: 2.0 mg/kg/injection, schedule: Q01DX009 (ip), vehicle: saline 96 % of control

CP(C)(=S)[S][Sn]([CH3])([CH3])[S]P(C)(C)=S
inactive: dose: 6.25 mg/kg/injection, schedule: Q01DX005 (ip), vehicle: Klucel (hydroxypropylcellulose) (HPC) 109 % of control and 113 % of control | dose: 12.5 mg/kg/injection, schedule: Q01DX005 (ip), vehicle: Klucel (hydroxypropylcellulose) (HPC) 108 % of control and 115 % of control and 117 % of control | [1] 105 % of control and 106 % of control and 122 % of control

CC1CCC2C(C)(C)C3CC12CC1OC13C (stereo unspecified)
inactive: [5] 100 % of control | [6] 91 % of control | [7] 96 % of control

CCc1cccc(C)c1NC(=O)CCC(=O)OC
inactive: [5] 102 % of control | [6] 97 % of control | [7] 96 % of control

S=c1cn[nH]c2ccc(S)cc12
inactive: [8] 88 % of control | [9] 99 % of control | [10] 97 % of control

O=C(NN(CCO)CCO)c1ccccc1
inactive: [8] 100 % of control | [9] 105 % of control | [10] 100 % of control

O=C1NC(=O)c2c3ccc(c21)CCc1ccc(c2c1C(=O)NC2=O)CC3
inactive: dose: 50.0 mg/kg/injection, schedule: Q01DX009 (ip), vehicle: saline with Tween-80 97 % of control | [11] 92 % of control | [12] 92 % of control

CC1(C)[C@H](O)CC[C@]2(C)[C@@H]1CC[C@]13C=C[C@](C)(C1)[C@H](O)C[C@H]32
inactive: dose: 1.88 mg/kg/injection, schedule: Q01DX005 (ip), vehicle: Klucel (hydroxypropylcellulose) (HPC) 96 % of control | dose: 3.75 mg/kg/injection, schedule: Q01DX005 (ip), vehicle: Klucel (hydroxypropylcellulose) (HPC) 94 % of control | dose: 7.5 mg/kg/injection, schedule: Q01DX005 (ip), vehicle: Klucel (hydroxypropylcellulose) (HPC) 91 % of control | dose: 15.0 mg/kg/injection, schedule: Q01DX005 (ip), vehicle: Klucel (hydroxypropylcellulose) (HPC) 95 % of control

CCN(CC)CCCN(C)Cc1c(-c2ccccc2)oc(-c2ccccc2)c1Cl
inactive: dose: 6.25 mg/kg/injection, schedule: Q01DX005 (ip), vehicle: saline with Tween-80 106 % of control | dose: 12.5 mg/kg/injection, schedule: Q01DX005 (ip), vehicle: saline with Tween-80 106 % of control | dose: 25.0 mg/kg/injection, schedule: Q01DX005 (ip), vehicle: saline with Tween-80 107 % of control | [8] 104 % of control

Nc1ccc(-c2ccc3ccccc3n2)cc1
inactive: dose: 3.13 mg/kg/injection, schedule: Q01DX009 (ip), vehicle: Klucel (hydroxypropylcellulose) (HPC) 103 % of control | dose: 6.25 mg/kg/injection, schedule: Q01DX009 (ip), vehicle: Klucel (hydroxypropylcellulose) (HPC) 101 % of control | dose: 12.5 mg/kg/injection, schedule: Q01DX009 (ip), vehicle: Klucel (hydroxypropylcellulose) (HPC) 106 % of control | dose: 25.0 mg/kg/injection, schedule: Q01DX009 (ip), vehicle: Klucel (hydroxypropylcellulose) (HPC) 88 % of control

CCN(CC)C(=S)Cl
inactive: [8] 107 % of control | [9] 106 % of control | [10] 101 % of control

CC(=Nc1ccccc1)c1ccc2ccccc2c1
inactive: [11] 95 % of control | [12] 90 % of control | dose: 400.0 mg/kg/injection, schedule: Q01DX009 (ip), vehicle: saline with Tween-80 90 % of control

COc1cc(/C=C/C2=C(C)C(=O)CC(c3cc(OC)c(OC)c(OC)c3)C2C)cc(OC)c1OC (stereo unspecified)
inactive: dose: 12.5 mg/kg/injection, schedule: Q04DX003 (ip), vehicle: Klucel (hydroxypropylcellulose) (HPC) 100 % of control | dose: 25.0 mg/kg/injection, schedule: Q04DX003 (ip), vehicle: Klucel (hydroxypropylcellulose) (HPC) 101 % of control | dose: 50.0 mg/kg/injection, schedule: Q04DX003 (ip), vehicle: Klucel (hydroxypropylcellulose) (HPC) 97 % of control
